# Measurements reported in patent publication US20140342914A1, “Method of Plant Growth with Bifenthrin” (priority 2013, published 2014).
# Tested on: Corn seeds
# Experiment: Corn seedling growth enhancement, in-furrow application at different rates (Example 2)
# Type: in vivo
# Conditions: average of 8 replications
# Description: Ten corn seeds (Pioneer variety 33M53, treated with PONCHO® 250 Insecticide) were evenly spaced in a single, 2 cm deep, furrow in a planter box (25.5 cm by 11.5 cm) containing steam treated loam soil (pH 6.4, 4.3% organic matter. An aqueous suspension of CAPTURE® LFR Insecticide (17.5% bifenthrin) was sprayed as a T-band in-furrow application onto the uncovered seeds at a rate of 269 g ai/ha using a DeVries overhead track sprayer at a pressure of 40 psi and an application volume of 200 l/ha. The seeds were covered with soil and the planter boxes placed onto a lab cart with overhead lighting set at 14 hours on and 10 hours off and a room temperature of 21° C. Three replicate planter boxes (total of 30 seeds) were treated and three control planter boxes to which no CAPTURE® Insecticide was applied were included in the test. Each planter box was watered with 146 mL of tap water and re-watered with 50 mL of tap water along the furrow at 4 days after treatment (DAT). At four DAT there were 19 emerged seedlings in the treated planter boxes and 16 emerged seedlings in the untreated planter boxes. At five DAT all seeds had emerged and the seedlings were removed from the soil and the roots were gently rinsed in tap water to remove the soil. The seedlings were placed onto paper and the roots and shoots were measured from the seed to the tip of the tallest leaf and from the seed to the tip of the longest root and each seedling was weighed. Table 1 below summarizes the average shoot height; root length and seedling wet weight of the treated and untreated seeds.
# In a manner similar to Example 1, Corn seeds were treated in-furrow with different rates of CAPTURE® LFR or test solutions of technical bifenthrin (96% purity) dissolved in acetone and diluted with distilled water containing 0.1% Tween® 20 (Polyoxylethylene-sorbitan monolaurate available from SigmaAldrich). There were 8 replications of each treatment including the untreated control. Table 2 below summarizes the average shoot height, root length and seedling weight of the treated and untreated seeds.
structure (smiles),measurement,setting,value
"Cc1c(COC(=O)[C@@H]2[C@H](/C=C(\Cl)C(F)(F)F)C2(C)C)cccc1-c1ccccc1 (racemic) [Technical Bifenthrin, 2-methylbiphenyl-3-ylmethyl (Z)-(1RS)-cis-3-(2-chloro-3,3,3-trifluoroprop-1-enyl)-2,2-dimethyl cyclopropanecarboxylate]",Root Length,4.68 g ai/ha in-furrow,20.8 cm
same,Seedling Weight,4.68 g ai/ha in-furrow,1.1 gm
same,Shoot Height,4.68 g ai/ha in-furrow,9.2 cm
same,Root Length,18.75 g ai/ha in-furrow,20.7 cm
same,Seedling Weight,18.75 g ai/ha in-furrow,1.1 gm
same,Shoot Height,18.75 g ai/ha in-furrow,9.5 cm
same,Root Length,75 g ai/ha in-furrow,21.5 cm
same,Seedling Weight,75 g ai/ha in-furrow,1.2 gm
same,Shoot Height,75 g ai/ha in-furrow,9.6 cm
same,Root Length,300 g ai/ha in-furrow,21.8 cm
same,Seedling Weight,300 g ai/ha in-furrow,1.1 gm
same,Shoot Height,300 g ai/ha in-furrow,9.5 cm
same,Root Length,1200 g ai/ha in-furrow,22.3 cm
same,Seedling Weight,1200 g ai/ha in-furrow,1.2 gm
same,Shoot Height,1200 g ai/ha in-furrow,9.9 cm
